Measurements published in patent US20240424113A1, “CONJUGATES COMPRISING ANTIFUNGALS AND HEAT SHOCK PROTEIN 90 (HSP90) INHIBITORS AND METHODS OF USE THEREOF” (Bright Angel Therapeutics Inc., priority 2021, published 2024).
Values after ≈ are worked out from the molar mass of the structure shown.

Experiments:
[1] = target: Hsp90 Nuclear Binding Domain (NBD) (Aspergillus fumigatus, UniProt P40292); assay: Surface Plasmon Resonance (SPR) binding, A. fumigatus Hsp90 NBD; settings: biotinylated Hsp90 NBD on streptavidin chip, 25° C., 1:1 binding model; NB undefined
Sequence of Hsp90 Nuclear Binding Domain (NBD) (Aspergillus fumigatus, UniProt P40292) (P40292 whole entry, looked up, the tested form may be a part): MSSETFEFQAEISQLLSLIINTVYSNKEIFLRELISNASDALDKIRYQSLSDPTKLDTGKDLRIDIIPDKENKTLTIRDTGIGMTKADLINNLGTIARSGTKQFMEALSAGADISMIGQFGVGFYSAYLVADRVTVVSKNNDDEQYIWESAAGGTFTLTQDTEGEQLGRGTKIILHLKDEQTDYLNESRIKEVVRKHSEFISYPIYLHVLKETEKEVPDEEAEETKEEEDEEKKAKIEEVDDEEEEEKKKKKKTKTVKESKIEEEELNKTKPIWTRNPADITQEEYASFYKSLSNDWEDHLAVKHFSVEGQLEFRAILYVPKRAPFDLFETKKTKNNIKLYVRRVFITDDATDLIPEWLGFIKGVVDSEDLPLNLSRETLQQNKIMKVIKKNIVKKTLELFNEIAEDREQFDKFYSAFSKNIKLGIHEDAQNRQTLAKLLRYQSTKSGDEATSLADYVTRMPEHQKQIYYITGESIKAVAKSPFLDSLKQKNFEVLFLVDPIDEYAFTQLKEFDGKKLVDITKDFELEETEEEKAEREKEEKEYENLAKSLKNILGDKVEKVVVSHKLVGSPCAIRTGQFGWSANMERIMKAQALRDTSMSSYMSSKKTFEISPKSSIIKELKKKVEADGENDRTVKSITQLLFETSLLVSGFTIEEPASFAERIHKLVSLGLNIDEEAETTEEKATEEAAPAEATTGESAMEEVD
Procedure: (§1) Surface Plasmon Resonance (SPR) Experiments. SPR experiments were performed on a Biacore S200 instrument at 25° C. Biotinylated Hsp90 Nuclear Binding Domain (NBD) was diluted to 40 μg/mL and immobilized on a streptavidin chip (Sensor Chip SA, GE Healthcare) at a density of 2000-2500 response units (RU) on the biosensor surface.
(§2) Recombinant Hsp90 NBDs were expressed and purified as previously described (Whitesell et al., Nat Commun 10, 402 (2019)) with the following modification; Hsp90 NBD expression constructs were modified to encode a C-terminal AviTag for site-specific on-column biotinylation with a BirA biotin-ligase kit (Avidity LLC; BirA-500). Stock protein solutions in 50% glycerol were stored at −20° C. until dilution into relevant buffers. Binding experiments were done in HBS-P (0.01 M HEPES, pH 7.4, 0.15 M NaCl, 0.005% v/v surfactant P20, GE Healthcare) with 2% DMSO at flow rate of 40 μL/min. Test compounds (dilution series) were injected with a 60 s association time and 600 s dissociation time. Resulting sensorgrams were analyzed with a fit to a 1:1 binding model, using BIA evaluation software.

[2] = target: Hsp90 Nuclear Binding Domain (NBD) (Candida albicans (strain SC5314 / ATCC MYA-2876) (Yeast), UniProt P46598); assay: Surface Plasmon Resonance (SPR) binding, C. albicans Hsp90 NBD; settings: biotinylated Hsp90 NBD on streptavidin chip, 25° C., 1:1 binding model
Sequence of Hsp90 Nuclear Binding Domain (NBD) (Candida albicans (strain SC5314 / ATCC MYA-2876) (Yeast), UniProt P46598) (P46598 1-218 limits assumed): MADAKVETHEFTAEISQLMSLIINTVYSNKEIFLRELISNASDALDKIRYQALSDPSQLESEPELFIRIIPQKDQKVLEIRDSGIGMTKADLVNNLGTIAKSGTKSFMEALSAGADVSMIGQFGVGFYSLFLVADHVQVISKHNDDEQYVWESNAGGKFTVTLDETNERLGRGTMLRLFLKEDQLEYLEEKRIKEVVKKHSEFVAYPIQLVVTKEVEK
Procedure: as §1, §2

[3] = system: CaCl2; assay: Antifungal sensitivity testing (broth microdilution MIC); assay type: cell-based; settings: 96-well broth microdilution
Procedure: Antifungal Sensitivity Testing. Minimum inhibitory concentrations (MICs) were determined in flat bottom, 96-well plate format using a modified broth microdilution protocol as previously described (Singh et al., PLoS Pathog. 5, e1000532 (2009); LaFayette et al., PLoS Pathog. 6, 79-80 (2010)). Compounds were formulated in dimethyl sulfoxide (DMSO, Sigma-Aldrich Co.); fluconazole was dissolved in sterile ddH2O. Each compound was tested in duplicate in at least two independent experiments. To test for fungicidal activity, cultures from MIC plates were spotted on YPD agar plates using a spotter (Frogger, V&P Scientific, Inc.). Plates were photographed after 24 h of incubation at 30° C.

[4] = system: HepG2 cells; assay: Mammalian cell toxicity (Cell Titer-Glo); assay type: cell-based
Procedure: Mammalian Cell Toxicity. HepG2 cells were seeded overnight at 500 cells/well in 384-well plate, then incubated with compounds (10-point concentration titration) for 48 h. Cell Titer-Glo® reagent ([…]) was added to each well and after 10-minute incubation at room temperature the luminescent signal was measured using an Envision plate reader (Perkin Elmer).

Structure (SMILES) | Kd [1] | Kd [2] | MIC50 ([3]; Table 4) | HepG2 MIC50 ([4]; Table 5, 48 h incubation) | HepG2 MIC50 ([4]; Table 6, 48 h incubation) | MIC50 ([3]; Table 6)
Nc1nc2sc(CNC3CCN(C(=O)C[C@@](O)(Cn4cncn4)c4ccc(F)cc4F)CC3)cc2n(-c2ccc3c(c2)N(c2ccccc2)CCO3)c1=O [Compound I-129, (S)-3-amino-6-(((1-(3-(2,4-difluorophenyl)-3-hydroxy-4-(1H-1,2,4-triazol-1-yl)butanoyl)piperidin-4-yl)amino)methyl)-1-(4-phenyl-3,4-dihydro-2H-benzo[b][1,4]oxazin-6-yl)thieno[2,3-b]pyrazin-2(1H)-one] | 698 nM | 546 nM | 7 µM (≈ 5.28 µg/mL) |  |  | 
Nc1nc2sc(CNCC3CCN(C[C@](O)(Cn4cncn4)c4ccc(F)cc4F)CC3)cc2n(-c2ccc3c(c2)N(c2ccccc2)CCO3)c1=O [Compound I-131, (S)-3-amino-6-((((1-(2-(2,4-difluorophenyl)-2-hydroxy-3-(1H-1,2,4-triazol-1-yl)propyl)piperidin-4-yl)methyl)amino)methyl)-1-(4-phenyl-3,4-dihydro-2H-benzo[b][1,4]oxazin-6-yl)thieno[2,3-b]pyrazin-2(1H)-one] |  |  | 1.25 µM (≈ 0.925 µg/mL) | 9 µM | 9 µM | 1.25 µM (≈ 0.925 µg/mL)
Nc1nc2sc(CNC3CCN(CC(O)(Cn4cncn4)c4ccc(F)cc4F)CC3(F)F)cc2n(-c2ccc3c(c2)N(c2ccccc2)CCO3)c1=O (stereo not shown) [Compound I-137, 3-amino-6-(((1-(2-(2,4-difluorophenyl)-2-hydroxy-3-(1H-1,2,4-triazol-1-yl)propyl)-3,3-difluoropiperidin-4-yl)amino)methyl)-1-(4-phenyl-3,4-dihydro-2H-benzo[b][1,4]oxazin-6-yl)thieno[2,3-b]pyrazin-2(1H)-one] | 127 nM | 54.1 nM | 0.78 µM (≈ 0.594 µg/mL) |  |  | 
Nc1nc2sc(CNC(=O)C3CCN(CC(O)(Cn4cncn4)c4ccc(F)cc4F)CC3)cc2n(-c2ccc3c(c2)N(c2ccccc2)CCO3)c1=O (stereo not shown) [Compound I-140, N-((3-amino-2-oxo-1-(4-phenyl-3,4-dihydro-2H-benzo[b][1,4]oxazin-6-yl)-1,2-dihydrothieno[2,3-b]pyrazin-6-yl)methyl)-1-(2-(2,4-difluorophenyl)-2-hydroxy-3-(1H-1,2,4-triazol-1-yl)propyl)piperidine-4-carboxamide] | 434 nM | 746 nM | 6.3 µM (≈ 4.75 µg/mL) |  |  | 
Nc1nc2sc(CNC3CCN(CC(O)(Cn4cncn4)c4ccc(F)cc4F)C(=O)C3)cc2n(-c2ccc3c(c2)N(c2ccccc2)CCO3)c1=O (stereo not shown) [Compound I-141, 3-amino-6-(((1-(2-(2,4-difluorophenyl)-2-hydroxy-3-(1H-1,2,4-triazol-1-yl)propyl)-2-oxopiperidin-4-yl)amino)methyl)-1-(4-phenyl-3,4-dihydro-2H-benzo[b][1,4]oxazin-6-yl)thieno[2,3-b]pyrazin-2(1H)-one] | 620 nM | 342 nM | 6.3 µM (≈ 4.66 µg/mL) |  |  | 
Nc1nc2sc(C(=O)NC3CCN(CC(O)(Cn4cncn4)c4ccccn4)CC3)cc2n(-c2ccc3c(c2)N(c2ccccc2)CCO3)c1=O (stereo not shown) [Compound I-142, 3-amino-N-(1-(2-hydroxy-2-(pyridin-2-yl)-3-(1H-1,2,4-triazol-1-yl)propyl)piperidin-4-yl)-2-oxo-1-(4-phenyl-3,4-dihydro-2H-benzo[b][1,4]oxazin-6-yl)-1,2-dihydrothieno[2,3-b]pyrazine-6-carboxamide] | 34.1 nM | 2.4 nM | 25 µM (≈ 17.6 µg/mL) |  |  | 
Nc1nc2sc(CNC3CCN(CC(O)(Cn4cncn4)c4ccccc4)CC3)cc2n(-c2ccc3c(c2)N(c2ccccc2)CCO3)c1=O (stereo not shown) [Compound I-145, 3-amino-6-(((1-(2-hydroxy-2-phenyl-3-(1H-1,2,4-triazol-1-yl)propyl)piperidin-4-yl)amino)methyl)-1-(4-phenyl-3,4-dihydro-2H-benzo[b][1,4]oxazin-6-yl)thieno[2,3-b]pyrazin-2(1H)-one] | 161 nM | 114 nM | 12.5 µM (≈ 8.62 µg/mL) |  |  | 
